According to ChEMBL document CHEMBL1124634, “Synthesis and antirhinovirus activity of 6-(dimethylamino)-2-(trifluoromethyl)-9-(substituted benzyl)-9H-purines” (J Med Chem, 1989):

How the values were obtained:
[1] = Antiviral activity against rhinoviral 18 serotype in a plaque inhibition assay using monolayers of M-HeLa cells at 8 uM; format: functional, cell-based; settings: Homo sapiens
[2] = system: Human rhinovirus sp.; assay: Antiviral activity against rhinoviral 29 serotype in a plaque inhibition assay using monolayers of M-HeLa cells; format: functional, organism-based
[3] = system: Human rhinovirus sp.; assay: Antiviral activity against rhinoviral 4 serotype in a plaque inhibition assay using monolayers of M-HeLa cells; format: functional, organism-based
[4] = system: Human rhinovirus sp.; assay: Antiviral activity against rhinoviral 8 serotype in a plaque inhibition assay using monolayers of M-HeLa cells; format: functional, organism-based
[5] = system: Human rhinovirus sp.; assay: Antiviral activity against rhinoviral 14 serotype in a plaque inhibition assay using monolayers of M-HeLa cells; format: functional, organism-based
[6] = system: Human rhinovirus sp.; assay: Antiviral activity against rhinoviral 15 serotype in a plaque inhibition assay using monolayers of M-HeLa cells; format: functional, organism-based
[7] = system: Human rhinovirus sp.; assay: Antiviral activity against rhinoviral 16 serotype in a plaque inhibition assay using monolayers of M-HeLa cells; format: functional, organism-based
[8] = system: Human rhinovirus sp.; assay: Antiviral activity against rhinoviral 12 serotype in a plaque inhibition assay using monolayers of M-HeLa cells; format: functional, organism-based
[9] = system: Human rhinovirus sp.; assay: Antiviral activity against rhinoviral-1A serotype in a plaque inhibition assay using monolayers of M-HeLa cells; format: functional, organism-based
[10] = system: Human rhinovirus sp.; assay: Antiviral activity against rhinoviral-1B serotype in a plaque inhibition assay using monolayers of M-HeLa cells; format: functional, organism-based
[11] = system: Human rhinovirus sp.; assay: Percent inhibitory activity at 8 uM against rhinoviral 13 serotype in a plaque inhibition assay using monolayers of M-HeLa cells; format: functional
[12] = system: Human rhinovirus sp.; assay: Percent inhibitory activity at 8 uM against rhinoviral 19s erotype in a plaque inhibition assay using monolayers of M-HeLa cells; format: functional
[13] = system: Human rhinovirus sp.; assay: Percent inhibitory activity at 8 uM against rhinoviral 21 serotype in a plaque inhibition assay using monolayers of M-HeLa cells; format: functional
[14] = system: Human rhinovirus sp.; assay: Percent inhibitory activity at 8 uM against rhinoviral 31 serotype in a plaque inhibition assay using monolayers of M-HeLa cells; format: functional
[15] = system: Human rhinovirus sp.; assay: Percent inhibitory activity at 8 uM against rhinoviral 3 serotype in a plaque inhibition assay using monolayers of M-HeLa cells; format: functional
[16] = system: Human rhinovirus sp.; assay: Percent inhibitory activity at 8 uM against rhinoviral 5 serotype in a plaque inhibition assay using monolayers of M-HeLa cells; format: functional
[17] = Percent inhibitory activity at 8 uM against rhinoviral 2 serotype in a plaque inhibition assay using monolayers of M-HeLa cells; format: functional, Homo sapiens
[18] = system: Human rhinovirus sp.; assay: Antiviral activity against rhinoviral 9 serotype in a plaque inhibition assay using monolayers of M-HeLa cells; format: functional, organism-based
[19] = system: Human rhinovirus sp.; assay: Percent inhibitory activity at 8 uM against rhinoviral 30 serotype in a plaque inhibition assay using monolayers of M-HeLa cells; format: functional
[20] = system: Human rhinovirus sp.; assay: Antiviral activity against rhinoviral 30 serotype in a plaque inhibition assay using monolayers of M-HeLa cells; format: functional, organism-based
[21] = system: Human rhinovirus sp.; assay: Antiviral activity against rhinoviral-18 serotype in a plaque inhibition assay using monolayers of M-HeLa cells; format: functional, organism-based
[22] = system: Human rhinovirus sp.; assay: Percent inhibitory activity at 8 uM against rhinoviral 15 serotype in a plaque inhibition assay using monolayers of M-HeLa cells; format: functional
[23] = system: Human rhinovirus sp.; assay: Percent inhibitory activity at 8 uM against rhinoviral 4 serotype in a plaque inhibition assay using monolayers of M-HeLa cells; format: functional
[24] = Percent inhibitory activity at 8 uM against rhinoviral-19 serotype in a plaque inhibition assay using monolayers of M-HeLa cells; format: functional, Homo sapiens
[25] = system: Human rhinovirus sp.; assay: Antiviral activity against rhinoviral 31 serotype in a plaque inhibition assay using monolayers of M-HeLa cells; format: functional, organism-based

Structure (SMILES)	IC50 [2] [µM]	IC50 [4] [µM]	IC50 [5] [µM]	IC50 [7] [µM]	IC50 [8] [µM]	IC50 [9] [µM]	IC50 [10] [µM]	Inhibition [11] [%]	Inhibition [13] [%]	Inhibition [15] [%]	Inhibition [16] [%]	Inhibition [17] [%]	IC50 [18] [µM]	also measured
CN(C)c1nc(C(F)(F)F)nc2c1ncn2Cc1ccccc1	3.2	8	8	0.96	3.8	1.1	0.04	22	28	20	33	33	0.46	IC50 [1]: 10 µM; IC50 [3]: 8.8 µM; IC50 [6]: 4.8 µM; Inhibition [12]: 32%; Inhibition [14]: 37%; Inhibition [19]: 19%
CN(C)c1nc(C(F)(F)F)nc2c1ncn2Cc1ccc(Cl)c(NC=O)c1	6.3	6.7	9.6	1.9	5	8	0.56	43	20	40	36	35	1.8	IC50 [20]: 6.5 µM; IC50 [21]: 8.7 µM; Inhibition [22]: 29%; Inhibition [23]: 34%; Inhibition [24]: 18%; IC50 [25]: 8 µM
